The target of one assay is T1, HER2 INS YVMA (Homo sapiens, UniProt P04626, INS775YVMA).
T1 construct: purchased DPF
Kind of assay: Lance Kinase Activity Assay, Her2 Exon 20 InsYVMA. As to conditions: biochemical Lance assay. On the procedure: This protocol describes how the Lance Kinase Activity Assay was performed to determine IC50 values of compounds of general formula (I) against HER2 INS YVMA. The principle behind this enzymatic assay is based upon the phosphorylation of the Ulight-peptide substrate. It is detected by using a specific EU-labeled anti-phospho peptide antibody. The binding of the Eu labeled anti-phospho peptide antibody to the phosphorylated ULight labeled peptide gives rise to a FRET-signal. Binding of an inhibitor to the kinase prevents phosphorylation of the Ulight-substrate, resulting in a loss of FRET. In table 2 is summarized the relevant information for the LANCE assay. Table 2: Reagents, stock concentrations and final assay concentrations for Her2 INS YVMA.
The compounds of general formula (I) summarized in Table 3 were serial diluted from a 10 mM DMSO stock solution 1:3 over 8 steps in a total volume of 20 µl. For every sample, 8 µl of kinase-substrate mix was transferred into a suitable assay plate (e.g. Corning #3673). Compound was added via pintool transfer (10nl/well) using a Biomek FX robot (BeckmanCoulter). Reaction was started by addition of 2µl ATP working solution and mixed using variomag teleshaker (Thermo Fischer Scientific). After 1 h incubation at room temperature the reaction was stopped with 10µl detection mix containing the Eu-labeled phosphospecific antibody and 10mM EDTA. After a second incubation period of 1 h at room temperature the FRET signal was measured at 340 nm excitation, 665 nm and 615 nm emission (for the ULight-substrate and Eu-AB, respectively) with an Envision spectrophotometer (Perkin Elmer, Waltham, MA, USA) with 50 µs delay and 300 µs integration time. IC50 values were determined from the sigmoidal dose response curves with the software Quattro Workflow (Quattro GmbH, Munich, Germany).

Assay [1] concerns EGFR Exon 20 InsNPH Ba/F3. Kind of assay: CellTiter-Glo cell viability, EGFR Exon 20 InsNPH Ba/F3. The note with it: Mus musculus, BaF3, 72 h, read-out: EGFR Exon 20 InsNPH Ba/F3 CTG IC50. Format: cell-based. The protocol:
(§1) The CellTiter-Glo Luminescent Cell Viability Assay (Promega) is a homogeneous method of determining the number of viable cells in culture. It is based on quantification of ATP, indicating the presence of metabolically active cells. Cells are seeded on day 1 at cell numbers that assure assay linearity and optimal signal intensity. After incubation for 24h in humidified chambers at 37°C and 5% CO2, compounds in DMSO are added at different concentrations. Cells are further incubated for 72 h at 37°C and 5% CO2. Cells treated with the compound vehicle DMSO are used as positive controls and cells treated with 10 µM Staurosporine serve as negative controls. At day 5 the CellTiter Glo Reagent is prepared according to the instructions of the kit (Promega Inc.): Reagent is mixed 1:1 with cell culture medium. Thereon, mixture and assay plates are equilibrated at room temperature for 20 min. Equal volumes of the reagent-medium-mixture is added to the volume of culture medium present in each well. The plates are mixed at ∼200 rpm for 2 minutes on an orbital shaker. The microplates are then incubated at room temperature for 10 minutes for stabilization of the luminescent signal. Following incubation the luminescence is recorded on a Victor microplate reader (Perkin Elmer) using a 200 ms integration time. The data is then analyzed with Excel using the XLFIT Plugin (dose response Fit 205) for IC50-determination. As quality control the Z'-factor is calculated from 16 positive and negative control values. Only assay results showing a Z'-factor ≥ 0.5 are used for further analysis.
In general terms: In ATP-based viability assays light output follows the ATP content of the culture.

Assay [2] concerns Her2 Exon 20 InsYVMA Ba/F3. The experiment in a line: CellTiter-Glo cell viability, Her2 Exon 20 InsYVMA Ba/F3. Format: cell-based. As to conditions: Mus musculus, BaF3, 72 h, read-out: Her2 Exon 20 InsYVMA Ba/F3 CTG IC50. The protocol:
as §1

The next assay relates to Cuto-17. Kind of assay: CellTiter-Glo cell viability, Cuto-17. Format: cell-based. As to conditions: CUTO17, 72 h, read-out: Cuto-17 CTG IC50. The protocol:
as §1

In the next assay the target is EGFR T790M L858R (Homo sapiens, UniProt P00533, L858R/T790M). Kind of assay: Lance assay, EGFR T790M L858R. The note with it: biochemical Lance assay.
Sequence of EGFR T790M L858R (P00533 25-1210 T790M/L858R): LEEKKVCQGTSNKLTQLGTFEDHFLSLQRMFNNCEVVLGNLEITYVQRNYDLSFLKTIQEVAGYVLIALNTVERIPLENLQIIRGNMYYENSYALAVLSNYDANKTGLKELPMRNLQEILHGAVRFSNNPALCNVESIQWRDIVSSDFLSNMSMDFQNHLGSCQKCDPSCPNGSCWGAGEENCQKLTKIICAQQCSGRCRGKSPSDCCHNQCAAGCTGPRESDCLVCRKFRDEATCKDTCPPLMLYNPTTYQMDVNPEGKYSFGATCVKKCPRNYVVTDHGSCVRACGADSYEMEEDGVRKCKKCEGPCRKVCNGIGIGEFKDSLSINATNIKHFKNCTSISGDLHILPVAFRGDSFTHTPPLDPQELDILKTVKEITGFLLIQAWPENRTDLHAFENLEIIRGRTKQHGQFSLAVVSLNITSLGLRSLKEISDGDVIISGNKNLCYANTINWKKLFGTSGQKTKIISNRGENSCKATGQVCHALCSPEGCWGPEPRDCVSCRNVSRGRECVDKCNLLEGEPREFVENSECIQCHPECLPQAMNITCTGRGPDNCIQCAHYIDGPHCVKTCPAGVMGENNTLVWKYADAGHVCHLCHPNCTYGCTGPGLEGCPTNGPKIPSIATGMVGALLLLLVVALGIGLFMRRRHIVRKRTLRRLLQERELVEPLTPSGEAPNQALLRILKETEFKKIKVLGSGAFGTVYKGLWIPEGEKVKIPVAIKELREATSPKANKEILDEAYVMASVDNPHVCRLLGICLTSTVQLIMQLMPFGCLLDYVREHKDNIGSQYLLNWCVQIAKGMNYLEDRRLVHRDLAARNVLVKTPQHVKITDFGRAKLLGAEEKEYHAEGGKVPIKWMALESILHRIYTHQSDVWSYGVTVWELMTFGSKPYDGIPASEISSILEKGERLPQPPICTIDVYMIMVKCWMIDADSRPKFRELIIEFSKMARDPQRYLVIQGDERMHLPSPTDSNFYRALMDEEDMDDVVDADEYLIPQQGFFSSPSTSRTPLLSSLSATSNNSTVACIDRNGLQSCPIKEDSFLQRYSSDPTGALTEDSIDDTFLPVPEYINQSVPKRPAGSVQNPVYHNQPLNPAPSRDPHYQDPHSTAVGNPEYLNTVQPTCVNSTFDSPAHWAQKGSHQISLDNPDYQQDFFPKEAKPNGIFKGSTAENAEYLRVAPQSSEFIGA
Another assay deals with EGFR wt (Homo sapiens, UniProt P00533). Kind of assay: Lance assay, EGFR wt. The note with it: biochemical Lance assay.
Sequence of EGFR wt (P00533 25-1210): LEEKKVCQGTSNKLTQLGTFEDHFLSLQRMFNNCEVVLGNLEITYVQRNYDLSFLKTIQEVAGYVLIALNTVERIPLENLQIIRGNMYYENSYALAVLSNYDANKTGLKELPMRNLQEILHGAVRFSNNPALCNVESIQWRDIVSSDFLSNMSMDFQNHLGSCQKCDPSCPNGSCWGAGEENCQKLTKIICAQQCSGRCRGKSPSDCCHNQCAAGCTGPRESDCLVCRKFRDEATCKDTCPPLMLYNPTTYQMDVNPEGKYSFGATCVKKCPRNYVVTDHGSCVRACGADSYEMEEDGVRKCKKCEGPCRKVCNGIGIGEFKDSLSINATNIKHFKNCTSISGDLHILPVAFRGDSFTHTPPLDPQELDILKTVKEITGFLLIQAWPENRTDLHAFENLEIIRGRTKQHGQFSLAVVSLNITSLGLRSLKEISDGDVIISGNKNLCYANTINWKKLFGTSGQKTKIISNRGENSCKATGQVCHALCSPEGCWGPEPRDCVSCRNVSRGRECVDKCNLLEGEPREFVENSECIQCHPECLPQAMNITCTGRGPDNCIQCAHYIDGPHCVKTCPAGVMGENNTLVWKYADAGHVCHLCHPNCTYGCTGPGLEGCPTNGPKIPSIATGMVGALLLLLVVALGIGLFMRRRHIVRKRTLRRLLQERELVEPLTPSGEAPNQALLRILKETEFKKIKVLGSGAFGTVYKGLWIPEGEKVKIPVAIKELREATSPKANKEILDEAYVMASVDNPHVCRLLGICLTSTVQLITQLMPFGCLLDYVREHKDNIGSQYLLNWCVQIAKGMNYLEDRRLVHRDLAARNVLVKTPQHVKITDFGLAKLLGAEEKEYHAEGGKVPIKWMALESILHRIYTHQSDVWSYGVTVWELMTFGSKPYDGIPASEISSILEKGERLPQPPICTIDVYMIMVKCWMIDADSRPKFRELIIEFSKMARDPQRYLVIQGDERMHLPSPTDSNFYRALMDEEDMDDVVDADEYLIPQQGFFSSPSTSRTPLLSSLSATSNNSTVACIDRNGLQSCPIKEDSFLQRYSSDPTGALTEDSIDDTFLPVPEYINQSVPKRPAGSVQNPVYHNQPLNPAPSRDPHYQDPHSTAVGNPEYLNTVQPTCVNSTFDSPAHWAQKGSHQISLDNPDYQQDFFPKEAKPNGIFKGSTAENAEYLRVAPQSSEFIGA
The test system of the next assay is H1975. The experiment in a line: CellTiter-Glo cell viability, H1975. It counts as cell-based. The note with it: Homo sapiens, NCI-H1975, 72 h, read-out: H1975 CTG IC50. The protocol:
as §1

In the next assay the test system is A431. The experiment in a line: CellTiter-Glo cell viability, A431. Format: cell-based. As to conditions: Homo sapiens, A-431, 72 h, read-out: A431 CTG IC50. On the procedure:
as §1

A further assay has as its system EGFR vIII Ba/F3. The experiment in a line: CellTiter-Glo cell viability, EGFR vIII Ba/F3. It counts as cell-based. As to conditions: Mus musculus, BaF3, 72 h, read-out: EGFR vIII Ba/F3 CTG IC50 /. The protocol:
as §1

T1 sequence (P04626 with tags, fused parts or gaps INS775YVMA): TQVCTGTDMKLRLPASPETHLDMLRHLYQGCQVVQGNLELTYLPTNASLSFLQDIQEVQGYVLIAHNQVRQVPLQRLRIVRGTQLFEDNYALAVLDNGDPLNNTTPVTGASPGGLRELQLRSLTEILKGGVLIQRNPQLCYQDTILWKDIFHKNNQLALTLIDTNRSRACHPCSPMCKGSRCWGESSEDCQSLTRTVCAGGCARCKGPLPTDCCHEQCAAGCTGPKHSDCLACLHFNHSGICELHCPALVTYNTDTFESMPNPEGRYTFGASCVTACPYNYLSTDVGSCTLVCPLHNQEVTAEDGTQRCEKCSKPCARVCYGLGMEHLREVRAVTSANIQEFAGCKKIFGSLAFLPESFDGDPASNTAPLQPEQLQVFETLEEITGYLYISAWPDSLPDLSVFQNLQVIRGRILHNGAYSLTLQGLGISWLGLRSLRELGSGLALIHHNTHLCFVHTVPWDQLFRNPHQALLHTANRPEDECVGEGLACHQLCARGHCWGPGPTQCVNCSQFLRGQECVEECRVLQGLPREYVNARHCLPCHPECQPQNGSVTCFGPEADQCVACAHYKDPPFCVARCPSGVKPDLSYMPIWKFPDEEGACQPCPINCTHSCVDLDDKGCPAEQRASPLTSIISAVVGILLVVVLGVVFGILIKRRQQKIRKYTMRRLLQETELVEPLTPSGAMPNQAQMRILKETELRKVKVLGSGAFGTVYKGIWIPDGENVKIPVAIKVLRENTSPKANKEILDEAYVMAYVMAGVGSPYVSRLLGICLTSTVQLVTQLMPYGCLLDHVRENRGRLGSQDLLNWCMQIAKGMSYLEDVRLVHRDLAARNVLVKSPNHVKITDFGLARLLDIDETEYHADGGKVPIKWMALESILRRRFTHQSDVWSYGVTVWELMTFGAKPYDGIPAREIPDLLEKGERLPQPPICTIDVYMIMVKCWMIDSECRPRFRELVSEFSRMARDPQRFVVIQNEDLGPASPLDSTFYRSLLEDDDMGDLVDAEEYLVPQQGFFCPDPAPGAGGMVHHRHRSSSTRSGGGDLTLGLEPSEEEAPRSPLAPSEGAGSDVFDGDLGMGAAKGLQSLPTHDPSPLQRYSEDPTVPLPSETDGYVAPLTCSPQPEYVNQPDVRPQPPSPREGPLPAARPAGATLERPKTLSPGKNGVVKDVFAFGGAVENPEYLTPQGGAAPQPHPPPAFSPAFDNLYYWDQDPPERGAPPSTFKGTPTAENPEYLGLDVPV

Take `C=CC(=O)Nc1cc(-c2c(-c3cnn(CC4CC4)c3)[nH]c3ncc(C(=O)OC(C)C)c(C)c23)ccc1C` [Example 21, isopropyl 3-(3-acrylamido-4-methylphenyl)-2-(1-(cyclopropylmethyl)-1 H-pyrazol-4-yl)-4-methyl-1 H-pyrrolo[2,3-b]pyridine-5-carboxylate]: the IC50 on HER2 INS YVMA was 50 to 100 nM; in assay [1] it was 50 to 100 nM; in assay [2], 100 to 500 nM; in the assay on Cuto-17, 100 to 500 nM; against EGFR T790M L858R, no more than 50 nM; against EGFR wt, no more than 50 nM. Also, the IC50 with H1975 lay within 100 to 500 nM; with A431 it was 1 to 10 µM; with EGFR vIII Ba/F3 it was 100 to 500 nM.

Take `C=CC(=O)Nc1cc(-c2c(-c3cnn(CCOC)c3)[nH]c3ncc(C(=O)OC(C)C)c(C)c23)ccc1C` [Example 11, isopropyl 3-(3-acrylamido-4-methylphenyl)-2-(1-(2-methoxyethyl)-1 H-pyrazol-4-yl)-4-methyl-1 H-pyrrolo[2,3-b]pyridine-5-carboxylate]: the IC50 on HER2 INS YVMA is no more than 50 nM; in assay [1], 100 to 500 nM; in [2], 100 to 500 nM; with Cuto-17 it was 100 to 500 nM; at EGFR T790M L858R, no more than 50 nM; on EGFR wt, no more than 50 nM. Also, the IC50 is 500 to 1000 nM in the assay with H1975, 1 to 10 µM in the assay with A431 and 100 to 500 nM with EGFR vIII Ba/F3.

Take `C=CC(=O)Nc1cc(-c2c(-c3cnn(Cc4ccccc4)c3)[nH]c3ncc(C(=O)OC(C)C)c(C)c23)ccc1C` [Example 9, isopropyl 3-(3-acrylamido-4-methylphenyl)-2-(1-benzyl-1 H-pyrazol-4-yl)-4-methyl-1 H-pyrrolo[2,3-b]pyridine-5-carboxylate]: the IC50 at HER2 INS YVMA was 500 to 1000 nM; in assay [1], 100 to 500 nM; in [2], 500 to 1000 nM; with Cuto-17, 500 to 1000 nM; on EGFR T790M L858R, 100 to 500 nM; at EGFR wt, no more than 50 nM. In addition, the values for the IC50 in the assay with H1975, in the assay on A431 and in the assay on EGFR vIII Ba/F3 were 500 to 1000 nM, 1 to 10 µM and 100 to 500 nM, respectively.

In the case of `C=CC(=O)Nc1cc(-c2c(-c3cnn(C4CC4)c3)[nH]c3ncc(C(=O)OC(C)C)c(C)c23)ccc1C` [Example 10, isopropyl 3-(3-acrylamido-4-methylphenyl)-2-(1-cyclopropyl-1 H-pyrazol-4-yl)-4-methyl-1 H-pyrrolo[2,3-b]pyridine-5-carboxylate], the IC50 against HER2 INS YVMA is 50 to 100 nM; in [1], 50 to 100 nM; in assay [2], 100 to 500 nM; in the assay with Cuto-17, 100 to 500 nM; against EGFR T790M L858R, 50 to 100 nM; against EGFR wt, no more than 50 nM. Moreover, the IC50 in the assay with H1975 was in the range of 500 to 1000 nM; in the assay on A431, 1 to 10 µM; in the assay with EGFR vIII Ba/F3, 100 to 500 nM.

`C=CC(=O)Nc1cc(-c2c(-c3cnn(C)c3)[nH]c3ncc(O[C@@H](C)CC)cc23)ccc1C` [Example 12, (S)-N-(5-(5-(sec-butoxy)-2-(1-methyl-1H-pyrazol-4-yl)-1H-pyrrolo[2,3-b]pyridin-3-yl)-2-methylphenyl)acrylamide 2,2,2-trifluoroacetate]: the IC50 on HER2 INS YVMA was no more than 50 nM; in assay [1], 100 to 500 nM; in assay [2] it was 100 to 500 nM; in the assay with Cuto-17, 100 to 500 nM; at EGFR T790M L858R, no more than 50 nM; on EGFR wt, no more than 50 nM. Also, the IC50 with H1975 lay within 500 to 1000 nM; with A431 it was 1 to 10 µM; in the assay on EGFR vIII Ba/F3, 100 to 500 nM.

For `C=CC(=O)Nc1cc(-c2c(-c3cn[nH]c3)[nH]c3ncc(C(=O)OC(C)C)c(C)c23)ccc1C` [Example 20, isopropyl 3-(3-acrylamido-4-methylphenyl)-4-methyl-2-(1 H-pyrazol-4-yl)-1 H-pyrrolo[2,3-b]pyridine-5-carboxylate], the IC50 against HER2 INS YVMA was 50 to 100 nM; in assay [1], 100 to 500 nM; in [2], 500 to 1000 nM; in the assay on Cuto-17, 500 to 1000 nM; against EGFR T790M L858R, no more than 50 nM; against EGFR wt it was no more than 50 nM. The IC50 is 1000 to 10000 nM with H1975, 1 to 10 µM with A431 and 100 to 500 nM in the assay with EGFR vIII Ba/F3.

As to `C=CC(=O)Nc1cc(-c2c(-c3cnn(C)c3)[nH]c3ncc(OCC)cc23)cc(F)c1C` [Example 3, N-(5-(5-ethoxy-2-(1-methyl-1H-pyrazol-4-yl)-1H-pyrrolo[2,3-b]pyridin-3-yl)-3-fluoro-2-methylphenyl)acrylamide 2,2,2-trifluoroacetate], the IC50 is no more than 50 nM at HER2 INS YVMA; 50 to 100 nM in assay [1]; 100 to 500 nM in assay [2]; no more than 50 nM in the assay on Cuto-17; no more than 50 nM against EGFR T790M L858R; no more than 50 nM against EGFR wt. In addition, the IC50 in the assay on H1975 is 100 to 500 nM; in the assay on A431 it was 1 to 10 µM; with EGFR vIII Ba/F3, no more than 50 nM.

Turning to `C=CC(=O)Nc1cc(-c2c(-c3cnn(CC)c3)[nH]c3ncc(C(=O)OC(C)C)cc23)ccc1C` [Example 6, isopropyl 3-(3-acrylamido-4-methylphenyl)-2-(1-ethyl-1H-pyrazol-4-yl)-1H-pyrrolo[2,3-b]pyridine-5-carboxylate], the IC50 was no more than 50 nM on HER2 INS YVMA; 100 to 500 nM in [1]; 100 to 500 nM in [2]; 500 to 1000 nM in the assay with Cuto-17; no more than 50 nM at EGFR T790M L858R; no more than 50 nM against EGFR wt. The IC50 in the assay on H1975 lay in the range of 500 to 1000 nM; in the assay on A431, 1 to 10 µM; in the assay on EGFR vIII Ba/F3, 100 to 500 nM.

For the compound `C=CC(=O)Nc1cc(-c2c(-c3cnn(CC)c3)[nH]c3ncc(C(=O)OC(C)C)c(C)c23)ccc1C` [Example 8, isopropyl 3-(3-acrylamido-4-methylphenyl)-2-(1-ethyl-1 H-pyrazol-4-yl)-4-methyl-1 H-pyrrolo[2,3-b]pyridine-5-carboxylate], the IC50 was no more than 50 nM against HER2 INS YVMA; no more than 50 nM in assay [1]; 100 to 500 nM in assay [2]; 100 to 500 nM in the assay with Cuto-17; no more than 50 nM against EGFR T790M L858R; no more than 50 nM against EGFR wt. The IC50 with H1975 lay in the range of 100 to 500 nM; in the assay on A431, 1 to 10 µM; in the assay with EGFR vIII Ba/F3 it was 100 to 500 nM.

With `C=CC(=O)Nc1cc(-c2c(-c3cnn(C)c3)[nH]c3ncc(C(=O)OC(C)C)cc23)cc(F)c1C` [Example 2, Isopropyl 3-(3-acrylamido-5-fluoro-4-methylphenyl)-2-(1-methyl-1H-pyrazol-4-yl)-1H-pyrrolo[2,3-b]pyridine-5-carboxylate 2,2,2-trifluoroacetate], the IC50 was no more than 50 nM against HER2 INS YVMA; 100 to 500 nM in [1]; 100 to 500 nM in [2]; 100 to 500 nM in the assay with Cuto-17; no more than 50 nM against EGFR T790M L858R; no more than 50 nM against EGFR wt. Also, the values for the IC50 in the assay on H1975, in the assay on A431 and in the assay with EGFR vIII Ba/F3 were 100 to 500 nM, 1 to 10 µM and no more than 50 nM, respectively.

The values above are taken from EP3868759A1, “2,3,5-SUBSTITUTED PYRROLO[2,3-B]PYRIDINES AS ERBB MODULATORS USEFUL FOR TREATING CANCER” (PearlRiver Bio GmbH, priority 2020, dated 2021).
